Source: patent US20200399238A1, “THERAPEUTIC AURONES” (MIDDLE TENNESSEE STATE UNIVERSITY, priority 2016, published 2020)

What was measured:
[1] = test system: Trypanosoma brucei brucei 427 cells; assay: T. brucei culture and assay (PrestoBlue); type: cell-based; details: Trypanosoma brucei; Table 1; mean of 2(+) independent trials; read-out: IC50 T. brucei
T. rubrum = assay: Antifungal microdilution broth assay, T. rubrum; type: cell-based; details: Trichophyton rubrum; Table 5
From the text: A microdilution broth method (CLSI, Reference Method for Broth Dilution Antifungal Susceptibility Testing of Yeasts, Approved Standard-Third Edition, Clinical Laboratory Standards Institute, Wayne, Pa., 2008) was followed with some modifications for the testing of potential antifungal compounds Corning CellGro RPMI 1640 with glutamine, without bicarbonate buffer, with phenol red (RPMI; Sigma-Aldrich) was used as the base medium for testing. A 1 M solution of morpholinepropanesulfonic acid (MOPS; Sigma-Aldrich) was added to the RPMI to a final concentration of 0.165 M for buffering (RPMI-MOPS). This medium was adjusted to a pH of 7.0 with 10 M NaOH and filter sterilized.
PrestoBlue® (Life Technologies, Invitrogen, Carlsbad, Calif.), a resazurin-based cell viability reagent that, in metabolically active cells, is reduced from blue, non-fluorescent resazurin, to red, fluorescent resorufin, was used to assess inhibition of yeast growth by the aurones. Reduction of the compound from resazurin to resorufin is proportional to the number of metabolically active cells and can be quantified by measuring relative fluorescence units (RFUs). […]
IC50 determination was calculated using GraphPad Prism version 7.01 for Windows (GraphPad Software, Inc., La Jolla, Calif.) from the RFUs at dilution points. […]

[2] = test system: C. tropicalis (ATCC strain 750); assay: Antifungal microdilution broth assay (PrestoBlue), C. tropicalis; type: cell-based; details: Candida tropicalis, ATCC750; Table 5
Protocol: Sigma-Aldrich) was used as the base medium for testing. […] solution of morpholinepropanesulfonic acid (MOPS; Sigma-Aldrich) was added to the RPMI to a final concentration of 0.165 M for buffering (RPMI-MOPS). This medium was adjusted to a pH of 7.0 with 10 M NaOH and filter sterilized. C. albicans (ATCC strain 90028), C. [NT] strain 66032), and C. tropicalis (ATCC strain 750) were cultured on potato dextrose agar (Sigma-Aldrich) plates, and incubated at 35° C. for 24 hours. For antifungal testing, overnight colonies were adjusted to 1.5×10^3 cells/mL, hereafter referred to as the test inoculum. […] Reduction of the compound from resazurin to resorufin is proportional to the number of metabolically active cells and can be quantified by measuring relative fluorescence units (RFUs). […] PrestoBlue was added to a final concentration of 10% in each well and fluorescence read at 560 nm excitation and 590 nm emission, per manufacturer instructions, using a SpectraMax M2e spectrophotometer (Molecular Devices, LLC, Sunnyvale, Calif.). […] The calculated Z', as described below, was compared to RFU readings and the optimal PrestoBlue incubation time was determined to be 75 minutes. IC50 determination was calculated using GraphPad Prism version 7.01 for Windows (GraphPad Software, Inc., La Jolla, Calif.) from the RFUs at dilution points. […]

IL-8 = assay: Cytokine response by ELISA, IL-8; type: cell-based, human; details: LPS-stimulated THP-1, ELISA
Protocol: Dexamethasone is a synthetic glucocorticoid that suppresses LPS-induced pro-inflammatory cytokine expression and was used as a control (Abraham, Lawrence et al. 2006). Supernatants were collected for human cytokine ELISAs and the manufacturer's protocol was followed to assess the cytokine response. Cells remaining after the supernatant collection were tested for relative viability by Alamar Blue cytotoxicity assay as previously described.

ERK, JNK, p38 = assay: Western blot, MAPK phosphorylation, THP-1; details: LPS 15 min
Protocol: U0126 is a compound that inhibits MEK1/2 and was used as positive control for ERK phosphorylation inhibition (Hotokezaka, Sakai et al. 2002). Cells were lysed with radio-immunoprecipitation assay (RIPA) lysis buffer that contained a protease and phosphatase inhibitor cocktail. Cell lysates were then tested for protein concentration using a BCA protein assay and diluted with RIPA lysis buffer to normalize protein concentration in all samples. Lysates were mixed with sample loading buffer containing bromophenol blue, glycerol, SDS, and 2-mercaptoethanol. The separated proteins were then transferred onto a nitrocellulose membrane and blocked with 5% BSA in IX Tris-buffered saline with 0.1% Tween-20 for 1 h. The blots were incubated with primary antibodies at 4° C. overnight followed by incubation with HRP-conjugated secondary antibodies for 2 h at 22° C. The membranes were developed by addition of ECL substrate and images were collected with a ChemiDoc XRS+ system chemiluminescence imager (Bio-Rad, Hercules, Calif., USA). Western blot band intensity was quantified using Image Lab software (Bio-Rad, Hercules, Calif., USA). […]

NF-κB-dependent promoter = assay: pNF-κB-Luc luciferase assay, RAW 264.7; type: cell-based, murine; details: 50 μM, 1 h pre-treatment, LPS 6 h, RAW264.7
Protocol: Cells were lysed in 250 μl/well of luminometry lysis buffer [25 mM Tris-phosphate, 1%(w/v) BSA, 0.025%(w/v) dithiothreitol (DTT), 1% Triton X-100, 15%(v/v) glycerol, 0.1 mM EDTA, 8 mM MgCl2, 1× protease inhibitor cocktail, and 1 mM phenylmethylsulfonyl fluoride] and incubated on a shaking table at 200 rpm for 15 min. A volume of 10 μl of 25 mM ATP was added to each well, and the samples were transferred in duplicates of 100 μl to an opaque-white 96-well plate. A volume of 20 μl of 10 mM sodium pyrophosphate was added to each well prior to the addition of 100 μl of 2 mM D-luciferin. Luminescence was quantified using a SpectraMax M5 plate reader using SoftMax Pro 6.3 software (Molecular Devices, Sunnyvale, Calif., USA).

SMILES | IC50 [1] [µM] | IC50 (T. rubrum) [µM] | IC50 [2] [µM] | reduction of IL-8 expression (IL-8) [%] | phosphorylation of ERK, JNK, or p38 (ERK, JNK, p38) | LPS-induced luciferase expression (pNF-κB-Luc) (NF-κB-dependent promoter)
COc1ccc(/C=C2\Oc3c(ccc(O)c3O)C2=O)cc1O [Aurone 1009, (Z)-6,7-dihydroxy-2-(3-hydroxy-4-methoxybenzylidene)benzofuran-3(2H)-one] | 18.8 | 49 | 10 |  |  | 
O=C1/C(=C/c2ccc(CO)o2)Oc2ccccc21 [aurone 1] |  |  |  | 71 | no statistically significant effect | significantly inhibit LPS-induced luciferase expression
